The record followed here is patent US20250163043A1 (TRANSTHERA SCIENCES (NANJING), INC., priority 2021, published 2025).

Where two headings read alike, the source gives them in different places.

Common to all, as to format: biochemical
One assay deals with CDK2/CycA2 (Homo sapiens, UniProt P24941). The experiment in a line: ADP-Glo kinase assay on CDK enzymatic activity, CDK2/CycA2. The conditions noted are these: 10 concentrations from 10 μM, 4-fold, 60 min room temperature. An excerpt:
(§1) Test samples: the compounds of the present invention, having structures shown above.
(§2) ADP-Glo Kinase Assay (ADP-Glo kinase kit), DMSO (dimethyl sulfoxide), CDK9/CycT1 (cyclin-dependent kinase 9/cyclin T1), CDK tide (cyclin-dependent kinase substrate peptide fragments), CDK1/CycE1 (cyclin-dependent kinase 1/cyclin E1), CDK2/CycA2 (cyclin-dependent kinase 2/cyclin A2), CDK3/CycE1 (cyclin-dependent kinase 3/cyclin E1), CDK4/CycD3 (cyclin-dependent kinase 4/cyclin D3), CDK5/p25NCK (cyclin-dependent kinase 5/p25), and AZD 4573.
(§3) A 384-well white plate, a 96-well plate, a microplate oscillator, a centrifuge, and a microplate reader.
(§4) The compounds were dissolved in DMSO and diluted 4-fold in the 96-well plate to obtain stock solutions with 10 concentration gradients, and added into a 384-well plate system to obtain a series of 10 concentration gradients of compound solutions with final concentrations of 10 μM starting and 4-fold gradient decreasing. 1 μM AZD4573 was used as compound positive control (PC) and 0.5% DMSO as solvent vehicle control (VC), ten duplicated wells each for PC and VC.
(§5) 1 μL of compound solution and 2 μL of 2× kinase solution were transferred to each well, and the plate was centrifuged at 1000 g for 30 s and left at room temperature for 10 min. A mixture of 2× substrate and ATP was prepared in 1× kinase buffer. The reaction was started after adding 2 μL of substrate and ATP into the plate. The plate was centrifuged at 1000 g for 30 s. The assay plate was closed and left at room temperature for 60 min. The reaction system was added with 4 μL of ADP Glo reagent, centrifuged at 1000 rpm for 1 min, and incubated at room temperature for 40 min. The reaction system was added with 8 μL of kinase assay reagent, centrifuged at 1000 rpm for 1 min and incubated at room temperature for 40 min. The […] was read on Biotek.
(§6) The inhibition rate was calculated according to the following formula: […]
(§7) Lumcmpd: compound fluorescence reading; Lumpositive: average value of the fluorescence reading of positive compound control; Lumvehicle: average value of the fluorescence reading of solvent vehicle control.
(§8) IC50 values were fitted using GraphPad 7.0 based on inhibition rates of compounds at different concentrations.

Another assay concerns the target CDK9/CycT1 (Homo sapiens, UniProt P50750). The experiment in a line: ADP-Glo kinase assay on CDK enzymatic activity, CDK9/CycT1. The conditions noted are these: 10 concentrations from 10 μM, 4-fold, 60 min room temperature.
Excerpt: as §1, §2, §3, §4, §5, §6, §7, §8

Another assay has as its target CDK1/CycE1 (Homo sapiens, UniProt P06493). The experiment in a line: ADP-Glo kinase assay on CDK enzymatic activity, CDK1/CycE1. How it is done:
as §1, §3, §4, §5, §6, §7, §8

Setting [1] is: ADP-Glo, 10 concentrations from 10 μM, 4-fold, 60 min room temperature, read-out: CDK1/CycE1/nM (IC50).

Chain of CDK1/CycE1 (P06493 whole entry, species assumed): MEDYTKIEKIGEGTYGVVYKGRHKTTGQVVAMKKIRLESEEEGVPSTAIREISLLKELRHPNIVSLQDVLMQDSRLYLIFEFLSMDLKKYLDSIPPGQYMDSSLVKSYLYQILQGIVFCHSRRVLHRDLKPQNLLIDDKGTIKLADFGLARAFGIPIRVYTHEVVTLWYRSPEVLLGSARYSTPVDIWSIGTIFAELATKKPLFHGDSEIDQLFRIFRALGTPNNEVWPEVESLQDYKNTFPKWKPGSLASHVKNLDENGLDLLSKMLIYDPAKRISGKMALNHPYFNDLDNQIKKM
Chain of CDK1/CycE1 (P24864 whole entry partner, species assumed): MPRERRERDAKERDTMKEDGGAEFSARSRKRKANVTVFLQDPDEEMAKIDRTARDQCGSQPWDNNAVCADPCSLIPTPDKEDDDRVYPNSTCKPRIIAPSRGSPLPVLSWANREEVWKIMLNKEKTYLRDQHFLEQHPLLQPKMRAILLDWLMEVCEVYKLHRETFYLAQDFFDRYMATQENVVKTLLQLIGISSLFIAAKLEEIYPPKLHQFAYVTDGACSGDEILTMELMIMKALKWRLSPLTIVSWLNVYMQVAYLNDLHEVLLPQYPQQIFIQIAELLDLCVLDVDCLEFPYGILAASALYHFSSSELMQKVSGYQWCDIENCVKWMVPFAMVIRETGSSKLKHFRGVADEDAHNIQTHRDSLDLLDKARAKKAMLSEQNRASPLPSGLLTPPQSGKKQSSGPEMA
Chain of CDK9/CycT1 (P50750 whole entry): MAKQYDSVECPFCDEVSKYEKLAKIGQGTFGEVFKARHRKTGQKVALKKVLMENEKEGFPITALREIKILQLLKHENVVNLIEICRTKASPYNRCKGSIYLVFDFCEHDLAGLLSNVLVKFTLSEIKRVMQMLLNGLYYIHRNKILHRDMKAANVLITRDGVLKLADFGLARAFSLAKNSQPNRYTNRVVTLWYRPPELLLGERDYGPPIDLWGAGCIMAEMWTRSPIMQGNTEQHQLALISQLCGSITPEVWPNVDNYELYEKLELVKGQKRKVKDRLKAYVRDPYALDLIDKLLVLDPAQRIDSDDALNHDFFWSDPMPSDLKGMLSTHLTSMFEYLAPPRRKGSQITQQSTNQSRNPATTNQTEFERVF
Chain of CDK9/CycT1 (O60563 whole entry partner): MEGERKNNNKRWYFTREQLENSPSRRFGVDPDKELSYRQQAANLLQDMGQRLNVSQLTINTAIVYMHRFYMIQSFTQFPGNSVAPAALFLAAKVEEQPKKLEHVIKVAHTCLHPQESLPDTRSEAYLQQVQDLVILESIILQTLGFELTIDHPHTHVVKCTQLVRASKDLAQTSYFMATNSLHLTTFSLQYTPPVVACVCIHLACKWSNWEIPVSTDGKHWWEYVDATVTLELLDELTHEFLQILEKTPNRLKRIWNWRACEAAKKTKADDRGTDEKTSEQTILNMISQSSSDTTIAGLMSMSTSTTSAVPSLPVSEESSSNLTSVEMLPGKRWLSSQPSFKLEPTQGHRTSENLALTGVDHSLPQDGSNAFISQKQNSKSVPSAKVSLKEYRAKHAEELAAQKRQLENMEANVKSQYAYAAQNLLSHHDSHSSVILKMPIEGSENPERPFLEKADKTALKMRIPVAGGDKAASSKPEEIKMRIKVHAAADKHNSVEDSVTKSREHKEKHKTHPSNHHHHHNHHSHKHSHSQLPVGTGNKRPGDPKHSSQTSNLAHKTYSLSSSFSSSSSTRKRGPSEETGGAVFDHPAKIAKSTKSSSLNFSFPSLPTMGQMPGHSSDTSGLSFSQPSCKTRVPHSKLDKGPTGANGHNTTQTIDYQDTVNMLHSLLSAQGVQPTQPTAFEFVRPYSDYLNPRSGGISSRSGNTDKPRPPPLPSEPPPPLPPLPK

`CCOc1nc(C#N)cc2cnc(N[C@H]3C[C@H](N)C3)cc12` [Compound 191, 7-(((1r,3r)-3-aminocyclobutyl)amino)-1-ethoxy-2,6-naphthyridine-3-carbonitrile]: the IC50 on CDK2/CycA2 came out at 1110 nM; against CDK9/CycT1, 5 nM; on CDK1/CycE1, 1950 nM.
Consider `CC(C)Nc1nc(C(F)F)cc2cnc(N[C@H]3C[C@H](N)C3)cc12` [Compound 206, N^7-((1r,3r)-3-aminocyclobutyl)-3-(difluoromethyl)-N^1-isopropyl-2,6-naphthyridine-1,7-diamine], for which the IC50 amounted to 6 nM on CDK2/CycA2, 1 nM on CDK9/CycT1 and 25 nM on CDK1/CycE1 (setting [1]).
For `CC(C)Oc1nc(C#N)cc2cnc(N[C@H]3C[C@H](N)C3)cc12` [Compound 207, 7-(((1r,3r)-3-aminocyclobutyl)amino)-1-isopropoxy-2,6-naphthyridine-3-carbonitrile] the same measures were 29 nM, 1 nM and 126 nM.
For `CC(C)Nc1nc(C#N)cc2cnc(N[C@H]3C[C@](C)(N)C3)cc12` [Compound 209, 7-((trans)-3-amino-3-methylcyclobutyl)amino-1-(isopropylamino)-2,6-naphthyridine-3-carbonitrile] the same measures were 306 nM, 2 nM and 170 nM.
With `CC1(Nc2nc(C#N)cc3cnc(N[C@H]4C[C@](C)(N)C4)cc23)CC1` [Compound 211, 7-((trans)-3-amino-3-methylcyclobutyl)amino-1-((1-methylcyclopropyl)amino)-2,6-naphthyridine-3-carbonitrile], the IC50 on CDK2/CycA2 was 434 nM; against CDK9/CycT1, 3 nM; on CDK1/CycE1 (setting [1]) it was 233 nM.
The corresponding values for `CC(C)Nc1nc(C#N)cc2cnc(N[C@H]3CCCCNC3)nc12` [Compound C6, (S)-2-(azepan-3-ylamino)-8-(isopropylamino)pyrido[3,4-d]pyrimidine-6-carbonitrile] are 330 nM, 4 nM and 202 nM.
For `CC(C)(C)Nc1nc(C#N)cc2cnc(N[C@H]3CCCNC3)nc12` [Compound C7, (S)-8-(tert-butylamino)-2-(piperidin-3-ylamino)pyrido[3,4-d]pyrimidine-6-carbonitrile] the same measures were 144 nM, 3 nM and 74 nM.
Consider `CC(C)(C)Nc1nc(C(F)F)cc2cnc(N[C@H]3C[C@H](O)C3)nc12` [Compound C8, (1r,3r)-3-((8-(tert-butylamino)-6-(difluoromethyl)pyrido[3,4-d]pyrimidin-2-yl)amino)cyclobutan-1-ol], for which the IC50 was determined as 5 nM at CDK2/CycA2, 2 nM on CDK9/CycT1 and 8 nM at CDK1/CycE1 (setting [1]).
With `CC(C)(C)Nc1nc(C#N)cc2cnc(N[C@H]3C[C@H](O)C3)nc12` [Compound C9, 8-(tert-butylamino)-2-(((1r,3r)-3-hydroxycyclobutyl)amino)pyrido[3,4-d]pyrimidine-6-carbonitrile], the results for the IC50 on CDK2/CycA2, on CDK9/CycT1 and at CDK1/CycE1 (setting [1]) were 8 nM, 1 nM and 8 nM, respectively.
As to `N#Cc1cc2cnc(N[C@H]3C[C@H](N)C3)nc2c(N[C@@H]2CCOC2)n1` [Compound C13, 2-(((1r,3R)-3-aminocyclobutyl)amino)-8-(((R)-tetrahydrofuran-3-yl)amino)pyrido[3,4-d]pyrimidine-6-carbonitrile], the IC50 at CDK2/CycA2 was found to be 85 nM; against CDK9/CycT1 it was 2 nM; at CDK1/CycE1 (setting [1]), 187 nM.
The corresponding values for `CCCNc1nc(C#N)cc2cnc(N[C@H]3C[C@H](N)C3)nc12` [Compound C14, 2-(((1r,3r)-3-aminocyclobutyl)amino)-8-(propylamino)pyrido[3,4-d]pyrimidine-6-carbonitrile] are 32 nM, 2 nM and 127 nM.
The corresponding values for `N#Cc1cc2cnc(N[C@H]3C[C@H](N)C3)nc2c(N2CCCCC2)n1` [Compound C15, 2-(((1r,3r)-3-aminocyclobutyl)amino)-8-(piperidin-1-yl)pyrido[3,4-d]pyrimidine-6-carbonitrile] are 253 nM, 2 nM and 114 nM.
On to `CC(C)Nc1nc(C#N)cc2cnc(N[C@H]3C[C@H](CN)C3)nc12` [Compound C16, 2-(((1r,3r)-3-(aminomethyl)cyclobutyl)amino)-8-(isopropylamino)pyrido[3,4-d]pyrimidine-6-carbonitrile], for which the IC50 was 22 nM on CDK2/CycA2, 2 nM on CDK9/CycT1 and 81 nM at CDK1/CycE1 (setting [1]).
The corresponding values for `CC(C)(C)Nc1nc(C#N)cc2cnc(N[C@H]3C[C@H](N)C3)nc12` [Compound C18, 2-(((1r,3r)-3-aminocyclobutyl)amino)-8-(tert-butylamino)pyrido[3,4-d]pyrimidine-6-carbonitrile] are 8 nM, 2 nM and 23 nM.
The corresponding values for `CN[C@H]1C[C@H](Nc2ncc3cc(C#N)nc(NC(C)C)c3n2)C1` [Compound C20, 8-(isopropylamino)-2-(((1r,3r)-3-(methylamino)cyclobutyl)amino)pyrido[3,4-d]pyrimidine-6-carbonitrile] are 18 nM, 1 nM and 71 nM.
The corresponding values for `CC(C)Nc1nc(C#N)cc2cnc(N[C@H]3C[C@H](N4CCN(C)CC4)C3)nc12` [Compound C22, 8-(isopropylamino)-2-(((1r,3r)-3-(4-methylpiperazin-1-yl)cyclobutyl)amino)pyrido[3,4-d]pyrimidine-6-carbonitrile] are 24 nM, 2 nM and 218 nM.
`CC(C)Nc1nc(C#N)cc2cnc(N[C@H]3C[C@@H](N4CCN(C)CC4)C3)nc12` [Compound C23, 8-(isopropylamino)-2-(((1s,3s)-3-(4-methylpiperazin-1-yl)cyclobutyl)amino)pyrido[3,4-d]pyrimidine-6-carbonitrile]: the IC50 against CDK2/CycA2 worked out at 59 nM; against CDK9/CycT1 it was 6 nM; on CDK1/CycE1 (setting [1]), 288 nM.
For `CC(C)Nc1nc(C#N)cc2cnc(N[C@H]3C[C@H](N(C)C)C3)nc12` [Compound C24, 2-(((1r,3r)-3-(dimethylamino)cyclobutyl)amino)-8-(isopropylamino)pyrido[3,4-d]pyrimidine-6-carbonitrile], the IC50 on CDK2/CycA2 is 115 nM; against CDK9/CycT1 it was 2 nM; on CDK1/CycE1 (setting [1]), 142 nM.
`CC(C)CNc1nc(C#N)cc2cnc(N[C@H]3C[C@H](N)C3)nc12` [Compound C25, 2-(((1r,3r)-3-aminocyclobutyl)amino)-8-(isobutylamino)pyrido[3,4-d]pyrimidine-6-carbonitrile]: the IC50 was 34 nM at CDK2/CycA2, 1 nM on CDK9/CycT1 and 86 nM on CDK1/CycE1 (setting [1]).
The corresponding values for `CC(C)Nc1nc(C#N)cc2cnc(N[C@H]3C[C@](C)(N)C3)nc12` [Compound C26, 2-(((1r,3r)-3-amino-3-methylcyclobutyl)amino)-8-(isopropylamino)pyrido[3,4-d]pyrimidine-6-carbonitrile] are 93 nM, 1 nM and 34 nM.
